Results as given in paper PMC9090415, “Discovery of small molecule inhibitors of Plasmodium falciparum apicoplast DNA polymerase” (Journal of Enzyme Inhibition and Medicinal Chemistry, 2022).

Biological target: T1, bacteriophage T4 DNA polymerase (Enterobacteria phage T4, UniProt P04415)
T1 construct: made in house
T1 sequence (P04415 1-898): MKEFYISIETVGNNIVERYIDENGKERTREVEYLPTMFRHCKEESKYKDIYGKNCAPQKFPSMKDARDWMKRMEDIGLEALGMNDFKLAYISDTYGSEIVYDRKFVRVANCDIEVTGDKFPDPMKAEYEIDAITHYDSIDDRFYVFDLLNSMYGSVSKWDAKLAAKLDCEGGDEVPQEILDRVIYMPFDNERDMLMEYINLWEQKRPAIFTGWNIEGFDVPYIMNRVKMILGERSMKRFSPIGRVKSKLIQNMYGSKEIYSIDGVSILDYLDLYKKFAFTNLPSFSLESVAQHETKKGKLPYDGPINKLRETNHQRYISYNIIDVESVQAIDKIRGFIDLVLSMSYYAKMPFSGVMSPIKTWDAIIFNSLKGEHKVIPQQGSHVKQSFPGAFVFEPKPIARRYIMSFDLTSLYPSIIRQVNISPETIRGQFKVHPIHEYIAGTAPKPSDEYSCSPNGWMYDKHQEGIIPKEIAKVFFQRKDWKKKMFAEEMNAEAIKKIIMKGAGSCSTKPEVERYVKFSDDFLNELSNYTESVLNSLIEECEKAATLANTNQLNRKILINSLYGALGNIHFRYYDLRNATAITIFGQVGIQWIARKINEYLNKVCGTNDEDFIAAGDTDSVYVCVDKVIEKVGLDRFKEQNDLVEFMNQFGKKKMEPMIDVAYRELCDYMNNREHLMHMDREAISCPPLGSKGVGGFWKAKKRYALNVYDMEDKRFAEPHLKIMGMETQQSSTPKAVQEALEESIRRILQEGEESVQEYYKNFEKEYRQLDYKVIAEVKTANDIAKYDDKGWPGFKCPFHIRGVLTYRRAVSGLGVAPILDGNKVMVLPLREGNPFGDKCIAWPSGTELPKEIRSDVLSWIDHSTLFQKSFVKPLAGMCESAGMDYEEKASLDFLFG
Test: Counter-screen against bacteriophage T4 DNA polymerase
Assay type: biochemical
Details: for % inhibition T4 10' 2.5 / % inhibition T4 10' 5 / % inhibition T4 10' 10 / % inhibition T4 10' 20 / % inhibition T4 10' 40 / % inhibition T4 10' 80: read at 10'; for % inhibition T4 70' 2.5 / % inhibition T4 70' 5 / % inhibition T4 70' 10 / % inhibition T4 70' 20 / % inhibition T4 70' 40 / % inhibition T4 70' 80: read at 70'; for % inhibition T4 130' 2.5 / % inhibition T4 130' 5 / % inhibition T4 130' 10 / % inhibition T4 130' 20 / % inhibition T4 130' 40 / % inhibition T4 130' 80: read at 130'; for % inhibition T4 40' 2.5 / % inhibition T4 40' 5 / % inhibition T4 40' 10 / % inhibition T4 40' 20 / % inhibition T4 40' 40 / % inhibition T4 40' 80: read at 40'; for % inhibition T4 90' 2.5 / % inhibition T4 90' 5 / % inhibition T4 90' 10 / % inhibition T4 90' 20 / % inhibition T4 90' 40 / % inhibition T4 90' 80: read at 90'; for % inhibition T4 180' 2.5 / % inhibition T4 180' 5 / % inhibition T4 180' 10 / % inhibition T4 180' 20 / % inhibition T4 180' 40 / % inhibition T4 180' 80: read at 180'
Procedure: Codon-optimized, exonuclease-deficient Pf-apPOL was overexpressed in E. coli BL21 (DE3) and purified as described. The protein was dialysed against two, 1-liter changes of 20 mM Tris-HCl (pH 8.0), 400 mM NaCl, and 20% glycerol. Plasmodium bergei and Babesia bovis apPOLs (Pb-apPOL and Bb-apPOL, respectively) were codon-optimized, expressed, and purified as for Pf-apPOL[15]. Bacteriophage T4 DNA polymerase was purified as described. The DNA oligonucleotides used to make the high-throughput substrate were obtained from Integrated DNA Technologies. Deoxynucleotides were purchased from Strategene. All other materials came from Fisher Scientific.
Each compound was tested in a dose-response format to determine IC50 values. […] T4 DNA polymerase can be produced in large quantities, and is in the same family (B-family) as the replicative human DNA polymerases (α, δ, and ε)[20].

## O=C1CSC2=NC3=C(CCc4ccccc43)C(c3cccs3)N12 (stereo not shown) [Molecule 59, O=C1CSC2=NC3=C(C(N12)c1cccs1)CCc1c3cccc1]
DRC-1, concentration 2.5
  % inhibition T4 10' 2.5: 10.0127%
  % inhibition T4 70' 2.5: 9.951%
  % inhibition T4 130' 2.5: 7.352%
DRC-1, concentration 5
  % inhibition T4 10' 5: 9.284%
  % inhibition T4 70' 5: 10.6029%
  % inhibition T4 130' 5: 7.713%
DRC-1, concentration 10
  % inhibition T4 10' 10: 14.9012%
  % inhibition T4 70' 10: 14.1389%
  % inhibition T4 130' 10: 10.7499%
DRC-1, concentration 20
  % inhibition T4 10' 20: 17.5613%
  % inhibition T4 70' 20: 13.8668%
  % inhibition T4 130' 20: 9.8688%
DRC-1, concentration 40
  % inhibition T4 10' 40: 23.9437%
  % inhibition T4 70' 40: 19.0347%
  % inhibition T4 130' 40: 15.3496%
DRC-1, concentration 80
  % inhibition T4 10' 80: 22.8817%
  % inhibition T4 70' 80: 18.0959%
  % inhibition T4 130' 80: 16.7896%
DRC-2, concentration 2.5
  % inhibition T4 10' 2.5: 31%
  % inhibition T4 40' 2.5: 31%
  % inhibition T4 90' 2.5: 30%
  % inhibition T4 180' 2.5: 24%
DRC-2, concentration 5
  % inhibition T4 10' 5: 18%
  % inhibition T4 40' 5: 18%
  % inhibition T4 90' 5: 18%
  % inhibition T4 180' 5: 15%
DRC-2, concentration 10
  % inhibition T4 10' 10: 6.37%
  % inhibition T4 40' 10: 6.37%
  % inhibition T4 90' 10: 8%
  % inhibition T4 180' 10: 5%
DRC-2, concentration 20
  % inhibition T4 10' 20: 8%
  % inhibition T4 40' 20: 8%
  % inhibition T4 90' 20: 8%
  % inhibition T4 180' 20: 4%
DRC-2, concentration 40
  % inhibition T4 10' 40: 6%
  % inhibition T4 40' 40: 6%
  % inhibition T4 90' 40: 6.37%
  % inhibition T4 180' 40: 5.53%
DRC-2, concentration 80
  % inhibition T4 10' 80: 11%
  % inhibition T4 40' 80: 11%
  % inhibition T4 90' 80: 11%
  % inhibition T4 180' 80: 9%

## Cc1nc(C)c2c(n1)N(CC1CCCCC1)C(=O)CC2 [KU0218606]
DRC-1, concentration 2.5
  % inhibition T4 10' 2.5: -4.605%
  % inhibition T4 70' 2.5: -6.824%
  % inhibition T4 130' 2.5: -8.748%
DRC-1, concentration 5
  % inhibition T4 10' 5: -3.989%
  % inhibition T4 70' 5: -8.391%
  % inhibition T4 130' 5: -10.3586%
DRC-1, concentration 10
  % inhibition T4 10' 10: -2.764%
  % inhibition T4 70' 10: -4.959%
  % inhibition T4 130' 10: -7.013%
DRC-1, concentration 20
  % inhibition T4 10' 20: -3.758%
  % inhibition T4 70' 20: -8.03%
  % inhibition T4 130' 20: -9.978%
DRC-1, concentration 40
  % inhibition T4 10' 40: -2.983%
  % inhibition T4 70' 40: -3.675%
  % inhibition T4 130' 40: -5.652%
DRC-1, concentration 80
  % inhibition T4 10' 80: -2.366%
  % inhibition T4 70' 80: -5.307%
  % inhibition T4 130' 80: -8.474%
DRC-2, concentration 2.5
  % inhibition T4 10' 2.5: 4%
  % inhibition T4 40' 2.5: 4%
  % inhibition T4 90' 2.5: 4%
  % inhibition T4 180' 2.5: -0.169%
DRC-2, concentration 5
  % inhibition T4 10' 5: 4.39%
  % inhibition T4 40' 5: 4.39%
  % inhibition T4 90' 5: 5%
  % inhibition T4 180' 5: 0.674%
DRC-2, concentration 10
  % inhibition T4 10' 10: 6%
  % inhibition T4 40' 10: 6%
  % inhibition T4 90' 10: 7%
  % inhibition T4 180' 10: 3%
DRC-2, concentration 20
  % inhibition T4 10' 20: 5.27%
  % inhibition T4 40' 20: 5.27%
  % inhibition T4 90' 20: 7%
  % inhibition T4 180' 20: 2%
DRC-2, concentration 40
  % inhibition T4 10' 40: 12%
  % inhibition T4 40' 40: 12%
  % inhibition T4 90' 40: 11%
  % inhibition T4 180' 40: 8%
DRC-2, concentration 80
  % inhibition T4 10' 80: 12%
  % inhibition T4 40' 80: 12%
  % inhibition T4 90' 80: 11%
  % inhibition T4 180' 80: 8%

## CN(C)S(=O)(=O)Oc1ccc(-c2noc(-c3ccc(Oc4cc(Cl)cc(Cl)c4)o3)n2)cc1 [KU0263859]
DRC-2, concentration 5
  % inhibition T4 10': 17%
  % inhibition T4 40': 17%
DRC-2, concentration 10
  % inhibition T4 10': 35%
DRC-2, concentration 20
  % inhibition T4 10': 35%
  % inhibition T4 40': 38%
  % inhibition T4 90': 35%
DRC-2, concentration 40
  % inhibition T4 40': 43%
  % inhibition T4 180': 38%
DRC-2, concentration 80
  % inhibition T4 40': 43%
  % inhibition T4 180': 43%

## Cc1ccc2c(C(=O)NCCc3cccnc3)cc(NC(=O)C(C)C)cc2n1 [KU0206096]
DRC-2, concentration 5
  % inhibition T4 10': 8%
DRC-2, concentration 10
  % inhibition T4 10': 30%
  % inhibition T4 90': 28%
DRC-2, concentration 80
  % inhibition T4 10': 35%
  % inhibition T4 180': 34%
DRC-2, concentration 2.5
  % inhibition T4 40': 8%
DRC-2, concentration 20
  % inhibition T4 40': 35%
  % inhibition T4 90': 30%
DRC-2, concentration 40
  % inhibition T4 90': 34%
  % inhibition T4 180': 28%

## Cl.NC(CO)C(=O)NNCc1ccc(O)c(O)c1O (stereo not shown) [KU0260493]
DRC-2, concentration 2.5
  % inhibition T4 10': -17%
  % inhibition T4 90': -11%
DRC-2, concentration 10
  % inhibition T4 10': -11%
DRC-2, concentration 5
  % inhibition T4 180': -17%

## Cc1cccc2c(C(=O)NC(C)C)cc(N(C)C)nc12 [Molecule 47, CC(NC(=O)c1cc(nc2c1cccc2C)N(C)C)C]
DRC-2, concentration 20
  % inhibition T4 10': 28%
DRC-2, concentration 40
  % inhibition T4 10': 30%
  % inhibition T4 90': 31%
DRC-2, concentration 80
  % inhibition T4 10': 30%
  % inhibition T4 90': 31%
  % inhibition T4 180': 28%

## O=C(O)CCS(=O)(=O)c1ccc(-c2ccc(S(=O)(=O)CCC(=O)O)cc2)cc1 [Molecule 32, OC(=O)CCS(=O)(=O)c1ccc(cc1)c1ccc(cc1)S(=O)(=O)CCC(=O)O]
DRC-2, concentration 2.5
  % inhibition T4 10': -14%
  % inhibition T4 180': -25%
DRC-2, concentration 20
  % inhibition T4 40': -22%
  % inhibition T4 90': -25%
DRC-2, concentration 40
  % inhibition T4 40': -14%
  % inhibition T4 90': -17%
  % inhibition T4 180': -22%
DRC-2, concentration 5
  % inhibition T4 90': -25%
DRC-2, concentration 80
  % inhibition T4 180': -17%

## CC1(C)CC(=O)C2=C(C1)OC1=C(C(=O)CC(C)(C)C1)C2c1ccc(O)cc1 [KU0194226]
DRC-2, concentration 40
  % inhibition T4 10': 18%
  % inhibition T4 40': 12%
  % inhibition T4 90': 12%
  % inhibition T4 180': 12%
DRC-2, concentration 5
  % inhibition T4 40': 17%
  % inhibition T4 180': 12%
DRC-2, concentration 10
  % inhibition T4 40': 18%
  % inhibition T4 90': 17%
DRC-2, concentration 80
  % inhibition T4 40': 30%
  % inhibition T4 90': 30%
  % inhibition T4 180': 30%
DRC-2, concentration 2.5
  % inhibition T4 180': 18%

## O=[N+]([O-])c1ccc(/C=C/c2ccc3ccccc3n2)o1 [Molecule 21, O=N(=O)c1ccc(o1)/C=C/c1ccc2c(n1)cccc2]
DRC-2, concentration 2.5
  % inhibition T4 10': 23%
  % inhibition T4 40': 25%
  % inhibition T4 90': 23%
DRC-2, concentration 5
  % inhibition T4 10': 25%
DRC-2, concentration 20
  % inhibition T4 40': 37%
DRC-2, concentration 80
  % inhibition T4 40': 32%
  % inhibition T4 90': 37%
DRC-2, concentration 10
  % inhibition T4 90': 32%
  % inhibition T4 180': 25%
DRC-2, concentration 40
  % inhibition T4 180': 37%
